Assay results published in paper PMC11353420, “Anti-Inflammatory, Cytotoxic, and Genotoxic Effects of Soybean Oligopeptides Conjugated with Mannose” (Foods, 2024).

Tests used:
[1] = SRB cytotoxicity assay, RAW 264.7; details: mouse
Method: (§1) The cells were maintained in a 5% CO2 humidified atmosphere (CO2 incubator, Thermo Scientific, Waltham, MA, USA) at 37 °C and sub-cultured every 3 days.
(§2) The cytotoxicity of the oligopeptide and its conjugated forms on HepG2, HEK293, LX-2, and RAW 264.7 cells, pre- and mature 3T3-L1 adipocytes, and hPBMCs was analyzed by a sulforhodamine (SRB) assay to obtain their non-toxic concentration for further experiments and as screening data for their in vitro safety. The cells were plated for 12 h in 96-well plates and then treated with the oligopeptide and its conjugated sugar at a concentration of 0–1000 µg/mL for 48 h. Dimethyl sulfoxide (DMSO) was used as a vehicle control (the untreated control). At the indicated time, the cells were then fixed and subjected to an SRB assay. The absorbance was measured at 510 nm by spectrophotometry (Gen5, BioTek, Winooski, VT, USA), and the cell viability was calculated as the ratio of the treatment versus untreated control. The data are represented as the mean ± standard deviation of three replicates and are expressed relative to the untreated control. The percentage of cell survival was calculated as follows:% cell survival = (Abs_extract/Abs_control) × 100

[2] = tested on: RAW 264.7 murine macrophage cell line; assay: SRB cytotoxicity assay, RAW 264.7; details: Mus musculus, RAW264.7, 48 h
Method: as §1, §2

RAW 264.7 cells = assay: Cell viability (SRB) of RAW 264.7 in the presence of LPS; assay type: cell-based, murine; details: up to 400 µg/mL, LPS 1 µg/mL, 24 h
COX-2 = COX-2 protein level by immunoblotting in LPS-treated RAW 264.7; assay type: cell-based, murine; details: 100, 200, 400 µg/mL, LPS 1 µg/mL 24 h
Method: RAW 264.7 macrophage cells were pretreated with various concentrations of the oligopeptide and its conjugated forms (100, 200, 400 µg/mL) for an hour and then incubated with LPS (1 µg/mL) for a further 24 h (at 37 °C in a 5% CO2 humidified atmosphere). The cells were then collected to investigate the iNOS and COX-2 protein levels. Cell lysate was prepared to obtain the protein samples. The samples were subjected to 10% sodium dodecyl sulfate polyacrylamide gel electrophoresis (SDS-PAGE). The separated proteins were electrically transferred to a nitrocellulose membrane. The target proteins were probed with specific antibodies, including anti-COX-2 antibody (Cell signaling, Danvers, MA, USA), anti-iNOS antibody (Merck, Rahway, NJ, USA), and anti-β-actin antibody (Sigma, St. Louis, MO, USA). Protein detection was performed using a chemiluminescence reagent (Bio-Rad Laboratories, Watford, UK).

Structure (SMILES): OC[C@H]1OC(O)[C@@H](O)[C@@H](O)[C@@H]1O (stereo partly drawn) [Man, D-mannose]
- IC20 at 48 h [1]: > 1000 µg/mL
- IC50 [2]: > 1000 µg/mL
- cell viability of RAW 264.7 cells in the presence of LPS (RAW 264.7 cells): did not change
- effect on COX-2 protein level (COX-2): did not affect
